Reference: patent publication EP0572122A2, “C-terminal modified osteogenic growth polypeptides” (YISSUM RESEARCH AND DEVELOPMENT COMPANY OF THE HEBREW …, priority 1992, dated 1993)

System: anti-OGP IgG
Test: ELISA reactivity of peptides with the anti-OGP IgG preparation
Type: binding, rabbits
Settings: polyclonal rabbit anti-OGP IgG fraction
Description: The wells were washed with 200 µl PBS (x3). Blocking of unreacted sites on the plastic well bottom was carried out by incubation of 1% gelatine in PBS at 37°C for 1 h. Rinsing with PBS (3 x 200 µl) was followed by 2 h incubation with the anti-OGP IgG preparation (diluted 1:300 with reference to the original rabbit anti-serum) at room temperature. This was followed by rinsing with (i) 3% BSA in PBS (1 x 200 µl); (ii) 0.02% Tween 20 in PBS (1 x 200 µl); and (iii) PBS (3 x 200 µl). The wells were then incubated with 100 µl of 1:1000 dilution in PBS of goat alkaline phosphatase conjugated anti-rabbit IgG for 2 h at room temperature. Rinsing with (i) 0.02% Tween in PBS (1 x 200 µl); (ii) PBS (2 x 200 µl); (iii) bidistilled water (3 x 200 µl) preceded a 20 min incubation at room temperature with alkaline phosphatase buffer solution: p-nitrophenyl phosphate 1 mg/ml in substrate buffer (diethanolamine buffer pH 9.6). Light absorbance at 450 nm was then recorded using an ELISA reader.

parathyroid hormone (PTH) (1-34) [PTH (1-34)]
binding to / reaction with anti-OGP IgG in ELISA: failed to react
